The source of these data is article PMC11206678, “Peptide-Alkoxyamine Drugs: An Innovative Approach to Fight Schistosomiasis: “Digging Their Graves with Their Forks”” (Pathogens, 2024).

Entries after “also recorded” stand apart in the source; their conditions may differ. Counter-ions that a name gives are not always drawn.

The nature of series [1]: Homolysis kinetics of alkoxyamines by EPR (growth of nitroxide). Format: physicochemical. The settings on record: mixture of diastereoisomers; for Homolysis rate constant kd: 0.1 mM alkoxyamine, O2 as alkyl radical scavenger; for Activation energy Ea: by Equation (2) from kd and T, A = 2.4 10^14 s^−1. The method, then:
Preparation of alkoxyamines and reference samples. All reagents including anhydrous solvents used for the chemical synthesis were purchased from commercially available sources such as Merck, TCI, and Fluorochem, and were used without further purification. All air and/or water-sensitive reactions were carried out under an argon atmosphere with dry solvents using standard syringe-cannula/septa techniques. Routine monitoring of reactions was performed using Merck Silica gel 60 F254, aluminum-supported TLC plates; spots were visualized using UV light and ethanolic acidic para-anisaldehyde solution or ethanolic phosphomolybdic solution, followed by heating. Purifications by means of column chromatography were performed with Silica gel 60 (230–400 mesh). ^1H, ^13C, and ^19F NMR spectra were obtained in CDCl3, MeOD (with residual H2O), D2O, DMSO-d6, or C6D6 solutions on by using Bruker AC400 (400 MHz) and Bruker AC300 (300 MHz) spectrometers. High-resolution mass spectra (HRMS) have been performed using a SYNAPT G2 HDMS (Waters) mass spectrometer equipped with a pneumatically assisted atmospheric pressure ionization (API) source. The sample was ionized in positive electrospray mode under the following conditions: electrospray voltage: 2.8 kV; port voltage: 20 V; Nebulizing gas flow rate (nitrogen): 100 L/h or in negative electrospray mode under the following conditions: electrospray voltage: −2.27 kV; port voltage: −20 V; Nebulizing gas flow rate (nitrogen): 100 L/h. The mass spectra (MS) were obtained with a time-of-flight (TOF) analyzer. The exact mass measurements were carried out in triplicate with external calibration. Homolysis constants were measured by EPR on an EMX Bruker spectrometer from 10^−4 M samples in tertbutyl benzene or in a mixture of H2O-nPrOH (1:1; v:v).
Kinetic experiments. Kinetics of A1–A7 (Scheme 2) for series L and D are performed by monitoring the growth of nitroxide by Electron Paramagnetic Resonance (X-band EMX Bruker machine) in tert-butylbenzene and a water/n-PrOH (for a good solubility of the alkoxyamine) as solvents and using O2 as alkyl radical scavenger to suppress the back reaction (kc in Scheme 2) as already reported. Homolysis rate constants kd are given by Equation (1) ([nitroxide]∞ = [alkoxyamine]0 = 0.1 mM, see Table S1) and the subsequent activation energies Ea given by Equation (2). (1) lnnitroxide∞−nitroxidet/nitroxide∞=−kd·t, (2) Ea=−RTlnkd/A.

Series [2] relates to Schistosoma mansoni adult worms. Put plainly: Viability of Schistosoma mansoni adult worms in vitro. Format: cell-based, Schistosoma mansoni NMRI strain. The settings on record: 100 μg/mL, 37 °C; for Time to Kill 50% of Parasites / Time to Kill 100% of Parasites: adult worms in RPMI 1640/Tween 80/DMSO, observed up to 72 h, duplicate wells; for Activity/toxicity towards schistosomes (in words): adult worms. The method, then: Experiments on the viability of Schistosoma mansoni adult worms. In vitro tests were performed on Schistosoma mansoni NMRI strains. This parasite is lab maintained on Biomphalaria glabrata (BRE strain) as intermediate mollusc host and Golden Hamster (Janvier Labs, Le Genest-Saint-Isle, France) as definitive vertebrate host. Methods, for molluscs’ and hamsters’ infection and for parasite recovery, were previously described. Adult worms were recovered by hepatic perfusion technique between 42 and 47 days post hamster exposition to parasite larvae. Worms were carefully collected and disposed in 12-well Falcon® plate containing 2 mL of RPMI 1640 (supplemented with L-glutamine and Hepes 25 mM). The plates containing a minimum of 15 worms by well were then placed in an incubator chamber at 37 °C and 5% CO2. The worms sex ratio was almost balanced in each well. The drug was first dissolved in DMSO (Sigma-Aldrich) to give a 100 mg/mL mother solution. Then the stock solution was complemented with Tween 80 and RPMI to obtain the following final ratio dilution: RPMI 1640/Tween 80/DMSO and 1000/0.95/3.8, v/v/v.
All molecules were tested at a final concentration of 100 µg/mL and 10 µg/mL. A negative control consisted in adding the same RPMI 1640/Tween 80/DMSO solution, but without any drug and a positive control consisted in adding praziquantel. All molecules and control were performed in duplicates of well. The worm viability was checked after 1, 2, 3, 4, 5, 6, 7, 8, 24, 48, and 72 h after adding the molecule.

[3] abbreviates: C–ON bond homolysis in t-BuPh, EPR, T (°C): A1L 128.0, A3L 125.0, A5L 130.0, A6L 125, A7L 126.5, A1D 122.5, A3D 119.8, A5D 130.
The mark [4] stands for this setting: C–ON bond homolysis in water/n-PrOH v/v 1:1, EPR, T (°C): A1L 95.1, A3L 94.5, A4L 94.6, A5L 94.0, A6L 94.8, A7L 94.3, A1D 93.5, A3D 92.6, A4D 95.0, A5D 94.6.

Take `CC(ON1C(C)(C)CCCC1(C)C)c1ccc(NC(=O)[C@H](Cc2ccccc2)NC(=O)[C@@H](NC(=O)[C@H](Cc2ccccc2)NC(=O)CCC(=O)OCc2ccccc2)C(C)C)cc1` (stereo partly drawn) [A6L, Benzyl 4-(((2S)-1-(((2S)-3-methyl-1-oxo-1-(((2S)-1-oxo-3-phenyl-1-((4-(1-((2,2,6,6-tetramethylpiperidin-1-yl)oxy)ethyl)phenyl)amino)propan-2-yl)amino)butan-2-yl)amino)-1-oxo-3-phenylpropan-2-yl)amino)-4-oxobutanoate]: the “Homolysis rate constant kd” value in series [1] (setting [3]) was 11.0 10^−4 s^−1. Also, the “Homolysis rate constant kd” value in series [1] (setting [4]) is 1.1 10^−4 s^−1. The “Activation energy Ea” value in series [1] (in t-BuPh) is 31.57 kcal/mol. Moreover, the “Activation energy Ea” value in series [1] (in water/n-PrOH v/v 1:1) stood at 30.86 kcal/mol. In series [2], the “Time to Kill 50% of Parasites” value is 24 h, the “Time to Kill 100% of Parasites” value came to 48 h and the “Activity/toxicity towards schistosomes (in words)” value was “less active; also recorded: lower activity”.

`CC(ON1C(C)(C)CCCC1(C)C)c1ccc(NC(=O)[C@H](Cc2ccccc2)NC(=O)[C@@H](NC(=O)[C@@H](N)Cc2ccccc2)C(C)C)cc1.O=C(O)C(F)(F)F` (stereo partly drawn) [A4L, (2S)-1-(((2S)-3-methyl-1-oxo-1-(((2S)-1-oxo-3-phenyl-1-((4-(1-((2,2,6,6-tetramethylpiperidin-1-yl)oxy)ethyl)phenyl)amino)propan-2-yl)amino)butan-2-yl)amino)-1-oxo-3-phenylpropan-2-aminium trifluoroacetate]: in series [1] (setting [4]), the “Homolysis rate constant kd” value is on record as 1.0 10^−4 s^−1. For the same compound, the “Activation energy Ea” value in series [1] (in water/n-PrOH v/v 1:1) was determined as 30.9 kcal/mol. In series [2], the “Time to Kill 50% of Parasites” value is recorded as 2 h, the “Time to Kill 100% of Parasites” value came out at 24 h and the “Activity/toxicity towards schistosomes (in words)” value is reported as “most efficient molecules”.

In the case of `O=C(O)C(F)(F)F` [TFA, reference compound], in series [2], the “Time to Kill 50% of Parasites” value turned out to be 7 h and the “Time to Kill 100% of Parasites” value was found to be 24 h.

“4-(((S)-1-(((S)-1-(((S)-1-carboxy-2-phenylethyl)amino)-3-methyl-1-oxobutan-2-yl)amino)-1-oxo-3-phenylpropan-2-yl)amino)-4-oxobutanoic acid [P10L]”: in series [2], the “Time to Kill 50% of Parasites” value is reported as 6 h, the “Time to Kill 100% of Parasites” value is recorded as 24 h and the “Activity/toxicity towards schistosomes (in words)” value is listed as “some activity towards schistosomes”.

On to “L-phenylalanyl-L-valyl-L-phenylalanine [P18L]”, for which the “Activity/toxicity towards schistosomes (in words)” value in series [2] was “no activity”.

Consider `CC(ON1C(C)(C)CCCC1(C)C)c1ccc(NC(=O)[C@H](Cc2ccccc2)NC(=O)[C@@H](NC(=O)[C@H](Cc2ccccc2)NC(=O)CCC(=O)O)C(C)C)cc1` (stereo partly drawn) [A7L, 4-(((2S)-1-(((2S)-3-methyl-1-oxo-1-(((2S)-1-oxo-3-phenyl-1-((4-(1-((2,2,6,6-tetramethylpiperidin-1-yl)oxy)ethyl)phenyl)amino)propan-2-yl)amino)butan-2-yl)amino)-1-oxo-3-phenylpropan-2-yl)amino)-4-oxobutanoic acid], for which the “Homolysis rate constant kd” value in series [1] (setting [3]) is recorded as 15.0 10^−4 s^−1. In series [1] (in t-BuPh), the “Activation energy Ea” value came out at 31.45 kcal/mol. The “Activation energy Ea” value in series [1] (in water/n-PrOH v/v 1:1) came to 30.93 kcal/mol. In addition, in series [2], the “Time to Kill 50% of Parasites” value is on record as 24 h, the “Time to Kill 100% of Parasites” value was 48 h and the “Activity/toxicity towards schistosomes (in words)” value is “less active”.

Turning to “(S)-2-((S)-2-amino-3-phenylpropanamido)-N-((S)-1-((4-ethylphenyl)amino)-1-oxo-3-phenylpropan-2-yl)-3-methylbutanamide [P25L]”, the “Activity/toxicity towards schistosomes (in words)” value in series [2] is recorded as “no activity”.

As for `CC(ON1C(C)(C)CCCC1(C)C)c1ccc(NC(=O)[C@@H](Cc2ccccc2)NC(=O)OC(C)(C)C)cc1` (mixture of isomers) [A1D, tert-butyl ((2R)-1-oxo-3-phenyl-1-((4-(1-((2,2,6,6-tetramethylpiperidin-1-yl)oxy)ethyl)phenyl)amino)propan-2-yl)carbamate], the figures for the “Homolysis rate constant kd” value in series [1] (setting [3]) and in series [1] (setting [4]) were 9.6 10^−4 s^−1 and 1.0 10^−4 s^−1, respectively. For the same compound, the “Activation energy Ea” value in series [1] (in t-BuPh) is 31.6 kcal/mol; in series [1] (in water/n-PrOH v/v 1:1), 30.83 kcal/mol.

In the case of “(S)-1-(((S)-1-(((S)-1-carboxy-2-phenylethyl)amino)-3-methyl-1-oxobutan-2-yl)amino)-1-oxo-3-phenylpropan-2-aminium trifluoroacetate [P11L]”, in series [2], the “Activity/toxicity towards schistosomes (in words)” value was “no activity”.

On to `CC(ON1C(C)(C)CCCC1(C)C)c1ccc(NC(=O)[C@H](Cc2ccccc2)NC(=O)[C@@H](NC(=O)[C@@H](N)Cc2ccccc2)C(C)C)cc1` (stereo partly drawn) [A5L, (2S)-2-((S)-2-amino-3-phenylpropanamido)-3-methyl-N-((2S)-1-oxo-3-phenyl-1-((4-(1-((2,2,6,6-tetramethylpiperidin-1-yl)oxy)ethyl)phenyl)amino)propan-2-yl)butanamide], for which the “Homolysis rate constant kd” value in series [1] (setting [3]) is reported as 18 10^−4 s^−1. Besides, the “Homolysis rate constant kd” value in series [1] (setting [4]) is 1.3 10^−4 s^−1. Also, the “Activation energy Ea” value in series [1] (in t-BuPh) came to 31.57 kcal/mol. The “Activation energy Ea” value in series [1] (in water/n-PrOH v/v 1:1) turned out to be 30.66 kcal/mol. Also, in series [2], the “Time to Kill 50% of Parasites” value was found to be 2 h, the “Time to Kill 100% of Parasites” value amounted to 7 h and the “Activity/toxicity towards schistosomes (in words)” value is recorded as “most efficient molecules”.

Regarding “(S)-1-(((S)-1-(((S)-1-((4-ethylphenyl)amino)-1-oxo-3-phenylpropan-2-yl)amino)-3-methyl-1-oxobutan-2-yl)amino)-1-oxo-3-phenylpropan-2-aminium trifluoroacetate [P22L]”, the “Activity/toxicity towards schistosomes (in words)” value in series [2] is “no activity”.

On to “Benzyl 4-(((S)-1-(((S)-1-(((S)-1-((4-ethylphenyl)amino)-1-oxo-3-phenylpropan-2-yl)amino)-3-methyl-1-oxobutan-2-yl)amino)-1-oxo-3-phenylpropan-2-yl)amino)-4-oxobutanoate [P23L]”, for which the “Activity/toxicity towards schistosomes (in words)” value in series [2] is recorded as “no activity”.

Consider `O=C(C1CCCCC1)N1CC(=O)N2CCc3ccccc3C2C1` (stereo not shown) [PZQ, praziquantel, reference compound], for which, in series [2], the “Time to Kill 50% of Parasites” value is reported as 1 h and the “Time to Kill 100% of Parasites” value turned out to be 1 h. The “Time to Kill 50% of Parasites” value in series [2] (listed as praziquantel) is recorded as below 1 h.

As for `CC(ON1C(C)(C)CCCC1(C)C)c1ccc(NC(=O)[C@H](Cc2ccccc2)NC(=O)OC(C)(C)C)cc1` (mixture of isomers) [A1L, tert-butyl ((2S)-1-oxo-3-phenyl-1-((4-(1-((2,2,6,6-tetramethylpiperidin-1-yl)oxy)ethyl)phenyl)amino)propan-2-yl)carbamate], the “Homolysis rate constant kd” value in series [1] (setting [3]) is 11.0 10^−4 s^−1; in series [1] (setting [4]), 1.5 10^−4 s^−1. Further, the results for the “Activation energy Ea” value in series [1] (in t-BuPh) and in series [1] (in water/n-PrOH v/v 1:1) were 31.81 kcal/mol and 30.69 kcal/mol, respectively.
